From patent publication US6838560B1, “Process for manufacturing morpholino-nucleotides, and use thereof for the analysis of and labelling of nucleic acid sequences” (priority 1999, dated 2005)

What was measured:
Format in all cases: biochemical
[1] = target: T1, Klenow exonuclease-free polymerase (Escherichia coli, UniProt P00582, D355A/E357A); test: Template-dependent 3' labelling / primer A extension, polyacrylamide gel; conditions: for enzymatic incorporation at 3' end of primer A: MATPP 400, 200, 50 μM, MATPPF 2.5 mM, 400, 200, 50 μM, 37° C., 10 minutes; for interruption of chain elongation after incorporation: with dGTP and dTTP (solution 2P), FIG. 4
T1 construct: purchased Amersham Life Science
T1 sequence (P00582 324-928 D355A/E357A): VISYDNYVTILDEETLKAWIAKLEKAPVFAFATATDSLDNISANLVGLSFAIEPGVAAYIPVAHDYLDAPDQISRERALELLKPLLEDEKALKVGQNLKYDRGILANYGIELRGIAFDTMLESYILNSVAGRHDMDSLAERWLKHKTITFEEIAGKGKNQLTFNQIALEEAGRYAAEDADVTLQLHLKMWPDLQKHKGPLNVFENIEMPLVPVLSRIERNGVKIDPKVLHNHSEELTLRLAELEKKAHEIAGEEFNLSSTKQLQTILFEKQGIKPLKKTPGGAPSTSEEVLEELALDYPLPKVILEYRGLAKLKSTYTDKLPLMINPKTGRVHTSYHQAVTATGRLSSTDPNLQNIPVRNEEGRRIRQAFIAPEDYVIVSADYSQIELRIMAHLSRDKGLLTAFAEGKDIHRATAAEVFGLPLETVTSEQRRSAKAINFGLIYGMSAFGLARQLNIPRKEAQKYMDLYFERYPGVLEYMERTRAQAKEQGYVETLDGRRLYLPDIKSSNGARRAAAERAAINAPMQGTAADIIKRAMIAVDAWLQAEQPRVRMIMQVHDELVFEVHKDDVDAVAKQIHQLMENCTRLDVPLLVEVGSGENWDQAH
Protocol: (§1) Use of morpholino A putrescine (MATPP) and morpholino A fluorescein (MATPPF) for the template-dependent 3′ labelling of DNA fragments; test of enzymatic incorporation of these compounds by three polymerases (Taq, Klenow, Klenow Exo Free) and a reverse transcriptase.
(§2) These two nucleoside triphosphate derivatives are tested in enzymatic incorporation to label an oligonucleotide 13 bases long at its 3′ end. This labelling is referred to as “template-dependent” since the enzymes used need the complementary strand to extend the oligonucleotide according to the Watson & Crick rules. Sequence A (17870 pmol/mL) studied and also its complementary target C (16128 pmol/mL) are given in the figure below: • Target C: 3′-TGCCAACCAACCCCACCTCAACCTCTG-5′ (SEQ ID NO: 7) • Primer A: 5′-ACG GTT GGT TGG G (13 bp) (SEQ ID NO: 8) • Expected fragments: 5′-ACG GTT TGG GGT GGA (18 bp) (SEQ ID NO: 9) • and lengths (bp): 5′-ACGGTTGGTTGGGGTGGAGTTGGA (24 bp)(SEQ ID NO: 10) 5′-ACGGTTGGTTGGGGTGGAGTTGGAGA (26 bp) (SEQ ID NO: 11) 5′-ACGGTTGGTTGGGGTGGAGTTGGAGAC (27 bp) (SEQ ID NO: 12)
(§3) Three enzymes are used for this labelling: Taq DNA polymerase (Boehringer Mannheim), the Klenow fragment (Boehringer Mannheim) and the Klenow exonuclease-free polymerase (Amersham Life Science). The primer is labelled at its 5′ end by incorporation of ^32P phosphate with the “Ready to go” T4 Polynucleotide Kinase kit (Pharmacia Biotech). The radiolabelled primer is noted A*.
(§4) The reaction buffers for the three enzymes are prepared for 10 reactions:
(§5) The enzymes are then diluted in the following manner, for 10 reactions: • Taq (5U/μL): 10×0.1 μL of Taq+10×15.5 μL of H2O • Klenow (20U/μL): 10×0.1 μL of Klenow+10×15.5 μL of H2O • Klenow Exo Free (5U/μL): 10×0.1 μL of Klenow Exo Free+10×15.5 μL of H2O.
(§6) Solutions containing the normal nucleoside triphosphates are also prepared: • Solution “2P” composed of a mixture of dGTP and dTTP each at 0.1 mM • Solution “4P” composed of a mixture of dATP, dCTP, dGTP and dTTP each at 0.1 mM
(§7) The implementation reactions are described in Table 14 below:
(§8) The morpholino A putrescine is thus tested at three concentrations: 400, 200 and 50 μM, while the morpholino A fluorescein is reacted at 2.5 mM, 400, 200 and 50 μM.
(§9) Before adding the enzyme, the mixture is denatured at 94° C. for 5 minutes. It is then left to return to ambient temperature in order for the hybridization to take place. The elongation is carried out at 70° C. for the Taq and at 37° C. for the two Klenow fragments, and for 10 minutes. Finally, the medium is again denatured with a formamide solution and heating at 90° C. for 5 minutes, after which it is placed on a polyacrylamide gel. The separation is carried out by electrophoresis at 2000 V. The gel is read using a Phosphorimager; the results obtained are given in FIG. 4.
(§10) In this figure, the lanes 1 serve as migration control for the labelled oligonucleotide A. This oligonucleotide has a length of 13 bases (13-mer). Lanes 2, 3 and 4 allow the elongation of the oligonucleotide A and the incorporation of the morpholino A putrescine to be monitored. Under these conditions, only the nucleotides dGTP and dTTP (solution “2P”) were added and can be used by the enzyme to carry out the extention of the primer. The presence of the morpholino A putrescine in the reaction medium allows its incorporation at the level of base 18. A control was carried out, placing in the medium only the “2P” mixture; in this case, the enzyme continues its extension up to the 17th base since it has no adenosine derivative to continue its polymerization. […] Reactions 5 to 8 correspond to the same reactions with morpholino A fluorescein. […] It is noted, however, for the two Klenow fragments, that there was occasionally incorporation of another base (G or T) in place of the morpholino derivative. Specifically, in these cases, elongation products corresponding to the 18-mer and 24-mer are found. […]

Klenow fragment = target: T2, Klenow fragment (Escherichia coli, UniProt P00582); test: as above; conditions: for enzymatic incorporation at 3' end of primer A: MATPP 400, 200, 50 μM, MATPPF 2.5 mM, 400, 200, 50 μM, 37° C., 10 minutes; for interruption of chain elongation after incorporation: with dGTP and dTTP (solution 2P), FIG. 4
T2 construct: the Klenow fragment (Boehringer Mannheim); purchased Boehringer Mannheim
T2 sequence (P00582 324-928): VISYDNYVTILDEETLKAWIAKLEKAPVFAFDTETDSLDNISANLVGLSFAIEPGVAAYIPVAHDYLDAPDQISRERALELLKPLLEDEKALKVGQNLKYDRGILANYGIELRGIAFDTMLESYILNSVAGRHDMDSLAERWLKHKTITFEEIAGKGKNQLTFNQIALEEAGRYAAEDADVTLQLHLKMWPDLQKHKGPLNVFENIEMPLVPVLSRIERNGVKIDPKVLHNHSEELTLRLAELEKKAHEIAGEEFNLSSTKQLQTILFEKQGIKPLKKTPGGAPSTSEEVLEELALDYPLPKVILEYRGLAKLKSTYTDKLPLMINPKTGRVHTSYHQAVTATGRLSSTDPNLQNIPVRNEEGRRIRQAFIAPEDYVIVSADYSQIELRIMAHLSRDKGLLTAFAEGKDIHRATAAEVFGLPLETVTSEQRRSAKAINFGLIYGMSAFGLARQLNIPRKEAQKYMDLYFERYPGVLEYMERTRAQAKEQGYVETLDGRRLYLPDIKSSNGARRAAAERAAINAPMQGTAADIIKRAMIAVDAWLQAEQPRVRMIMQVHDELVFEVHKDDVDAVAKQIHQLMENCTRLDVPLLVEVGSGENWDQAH
Protocol: as §1, §2, §3, §4, §5, §6, §7, §8, §9, §10

Taq DNA polymerase = target: T3, Taq DNA polymerase (Thermus aquaticus, UniProt P19821); test: as above; conditions: for enzymatic incorporation at 3' end of primer A: MATPP 400, 200, 50 μM, MATPPF 2.5 mM, 400, 200, 50 μM, 70° C., 10 minutes; for interruption of chain elongation after incorporation: with dGTP and dTTP (solution 2P), FIG. 4
T3 construct: purchased Boehringer Mannheim
T3 sequence (P19821 whole entry): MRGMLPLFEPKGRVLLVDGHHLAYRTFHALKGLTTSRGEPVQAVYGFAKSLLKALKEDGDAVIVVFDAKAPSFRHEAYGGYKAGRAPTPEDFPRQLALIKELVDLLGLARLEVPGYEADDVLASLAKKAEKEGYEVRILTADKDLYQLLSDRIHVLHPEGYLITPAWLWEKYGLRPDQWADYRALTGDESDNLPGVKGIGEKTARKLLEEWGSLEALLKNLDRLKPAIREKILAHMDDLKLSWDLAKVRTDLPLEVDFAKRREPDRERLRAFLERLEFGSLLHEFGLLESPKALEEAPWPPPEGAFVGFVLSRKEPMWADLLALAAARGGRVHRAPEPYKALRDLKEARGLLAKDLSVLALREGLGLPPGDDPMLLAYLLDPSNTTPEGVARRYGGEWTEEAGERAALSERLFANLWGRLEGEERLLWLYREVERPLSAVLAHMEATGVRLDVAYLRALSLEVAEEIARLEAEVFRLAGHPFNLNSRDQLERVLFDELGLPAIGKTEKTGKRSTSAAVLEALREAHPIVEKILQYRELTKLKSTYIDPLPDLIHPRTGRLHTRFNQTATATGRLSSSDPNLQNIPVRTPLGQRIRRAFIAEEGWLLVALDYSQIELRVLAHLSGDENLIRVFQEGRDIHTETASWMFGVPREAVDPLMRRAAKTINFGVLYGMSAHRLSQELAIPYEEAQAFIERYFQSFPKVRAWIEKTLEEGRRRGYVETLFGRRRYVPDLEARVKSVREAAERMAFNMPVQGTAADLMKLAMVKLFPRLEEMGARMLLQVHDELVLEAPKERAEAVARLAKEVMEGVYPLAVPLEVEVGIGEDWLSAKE
Protocol: as §1, §2, §3, §4, §5, §6, §7, §8, §9, §10

Taq polymerase = target: T4, Taq polymerase (Thermus aquaticus, UniProt P19821); test: Sequencing reaction with fluorescent primers on Bluescript plasmid DNA (Example 13); conditions: 200 and 500 μM; Bluescript plasmid template; FIG. 1
T4 construct: purchased Perkin-Elmer
T4 sequence (P19821 whole entry): as above
Protocol: The morpholino T glycine 4 of Example 2 is tested in sequence reaction with fluorescent primers (Applied Biosystems, Perkin-Elmer, Foster City, Calif., USA) on a standard template which is a Bluescript plasmid DNA (Stratagene, La Jolla, Calif., USA). The enzyme used is a Taq polymerase (Perkin-Elmer), which is used in its buffer (TACS buffer, Perkin-Elmer).
Two reactions are carried out with morpholino T glycine at 200 and 500 μM (Table 4), and also two control reactions (Table 5) with dideoxynucleotide T (Boehringer).
The reaction medium, of a total volume of 10 μL, contains 125 ng of template, 1.25 pmol of fluorescent primer and the other constituents given in Tables 4 and 5. The medium is subjected to heat cycles in order to produce in number molecules of newly formed DNA strands. […]
The products of the sequencing reactions are detected by fluorescence. The results obtained are represented in the attached figure which illustrates the detection of the products in the sequencing gel analysed by the Perkin-Elmer Analysis software, version 3.0.
For each test, the primers are identifiable by their fluorescence properties, the ROX label (red) for the control reaction 250 μm dideoxythymidine triphosphate (dashed-curve) and the label JOE (green) for the reaction concerning the 200 μm morpholino T glycine (solid-line curve).

Taq polyerase = target: T5, Taq polyerase (Thermus aquaticus, UniProt P19821); test: Sequencing reaction with fluorescent primers on Bluescript plasmid DNA (Example 14); conditions: fluorescence detection of the sequencing products
T5 construct: purchased Perkin-Elmer
T5 sequence (P19821 whole entry): as above
Protocol: Morpholino A putrescine (MATPP) 7 and morpholino A fluorescein (MATPPF) 12 are tested in squencing reaction with fluorescent primers (Applied Biosystems, Perkin-Elmer, Foster City, Calif., USA) on a standard template which is a Bluescript plasmid DNA (Stratagene, La Jolla, Calif., USA). The enzyme used is a Taq polyerase (Perkin-Elmer) which is used in its buffer (Thermo Sequenase buffer, Amersham Life Science).
Three sequencing reactions are carried out with MATPP at 100, 200 and 400 μM and four sequencing reactions are carried out with MATPPF at 200, 500, 1000 and 5000 μM, along with control reactions with the dideoxynucleotide ddATP at a concentration of 250 μM (Boehringer).
The reaction medium, of a total volume of 10 μL, contains 125 ng of template, 1.25 pmol of fluorescent primer and the other constituents as described in the tables.
The medium is subjected to heating cycles in order to produce in number molecules of newly formed DNA strands. […]
The amplification products are purified on a Sephadex G50 column. The products of each sequencing reaction are mixed with the products of a control reaction and analysed by electrophoresis. […]

Row | Molecule | enzymatic incorporation at 3' end of primer A [1] | interruption of chain elongation after incorporation [1] | enzymatic incorporation at 3' end of primer A (Klenow fragment) | interruption of chain elongation after incorporation (Klenow fragment) | enzymatic incorporation at 3' end of primer A (Taq DNA polymerase) | interruption of chain elongation after incorporation (Taq DNA polymerase) | action as chain terminator in sequencing reaction (Taq polymerase) | incorporation by the Taq polymerase in sequencing reaction (Taq polymerase) | detection of sequencing reaction products (Taq polyerase)
1 | 4-(aminobutyl)-2-(adenosin-9-yl)-6-(hydroxymethyl)morpholine 6-triphosphate [morpholino A putrescine] | incorporate | interruption of the elongation of the chain | incorporate | interruption of the elongation of the chain | incorporate | interruption of the elongation of the chain |  |  | 
2 | 4-(carboxymethyl)-2-(thymidin-1-yl)-6-(hydroxymethyl)morpholine 6-triphosphate [morpholino T glycine] |  |  |  |  |  |  | acts correctly as a chain terminator | correctly incorporated in a base-specific manner | 
3 | Nc1ncnc2c1ncn2C1CN(CCCCNC(=S)Nc2ccc3c(c2)C(=O)OC32c3ccc(O)cc3Oc3cc(O)ccc32)CC(COP(=O)(O)OP(=O)(O)OP(=O)(O)O)O1 (stereo not drawn) [morpholino A fluorescein] | incorporate | stops the polymerization of the complementary strand | incorporate | stops the polymerization of the complementary strand | incorporate | stops the polymerization of the complementary strand |  |  | detected by means of the fluorophore borne by this derivative
